Assay results: ChEMBL document CHEMBL1201862, “PubChem BioAssay data set” (2004)
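Test compounds were applied to cells in 96-well plates for 48 hours at 5 doses. GI50: concentration for 50% inhibition of growth.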 Calls of active or inactive are those of the source. No stated cut-off is given here; in the data, active = GI50 up to about 1.1 µM and inactive = higher.

Legend:
Assay in all cases: inhibition of tumour cell growth, NCI panel, 48 h
IGROV-1 = tested on: IGROV-1
UACC-257 = tested on: UACC-257
TK-10 = tested on: TK-10
M14 = tested on: M14
HCT-116 = tested on: HCT-116
MCF7 = tested on: MCF7
MDA-N = tested on: MDA-N
Hs-578T = tested on: Hs-578T
OVCAR-3 = tested on: OVCAR-3
T47D = tested on: T47D
SK-MEL-28 = tested on: SK-MEL-28
UO-31 = tested on: UO-31
A549 = tested on: A549
SF-268 = tested on: SF-268
SW-620 = tested on: SW-620
UACC-62 = tested on: UACC-62
CAKI-1 = tested on: CAKI-1
BT-549 = tested on: BT-549
U-251 = tested on: U-251
MDA-MB-231 = tested on: MDA-MB-231

Measured: GI50

CC1C(c2ccc3c(c2)OCO3)c2cc3c(cc2OC1N1CCCCC1)OCO3 (configuration not stated)
inactive: IGROV-1 56.6 µM | UACC-257 > 100 µM | TK-10 > 100 µM | M14 40.2 µM | HCT-116 42.6 µM | MCF7 65.9 µM | MDA-N 20.8 µM | Hs-578T 35.4 µM | OVCAR-3 41.6 µM | T47D 30.7 µM | SK-MEL-28 54.8 µM | UO-31 77.1 µM | A549 > 100 µM | SF-268 > 100 µM | SW-620 55 µM | UACC-62 88.9 µM | CAKI-1 23.4 µM

O=C1C2=Nc3ccccc3C(O)(C(=O)O)N2c2ccccc21 (configuration not stated)
inactive: IGROV-1 37.7 µM | UACC-257 10.7 µM | TK-10 81.7 µM | BT-549 > 10 µM | U-251 19.9 µM | HCT-116 20 µM | MCF7 19.9 µM | Hs-578T 27.7 µM | OVCAR-3 14 µM | SK-MEL-28 43.9 µM | UO-31 12.5 µM | A549 7.66 µM | SF-268 18.2 µM | SW-620 19.4 µM | MDA-MB-231 17.2 µM | CAKI-1 14.3 µM

COc1ccc(N(CN2C(=O)CCC2OC)C(C)=O)cc1 (configuration not stated)
inactive: IGROV-1 > 100 µM | UACC-257 > 100 µM | TK-10 > 100 µM | M14 > 100 µM | U-251 > 100 µM | HCT-116 > 100 µM | MCF7 > 100 µM | MDA-N > 100 µM | Hs-578T > 100 µM | OVCAR-3 > 100 µM | T47D > 100 µM | SK-MEL-28 > 100 µM | UO-31 > 100 µM | A549 > 100 µM | SF-268 > 100 µM | SW-620 > 100 µM | UACC-62 > 100 µM | MDA-MB-231 > 100 µM | CAKI-1 > 100 µM

CSCCCN(CCCSC)CCCSC
inactive: IGROV-1 > 100 µM | UACC-257 > 100 µM | BT-549 > 100 µM | M14 > 100 µM | U-251 > 100 µM | HCT-116 > 100 µM | MCF7 > 100 µM | MDA-N > 100 µM | OVCAR-3 > 100 µM | T47D > 100 µM | SK-MEL-28 > 100 µM | UO-31 > 100 µM | A549 > 100 µM | SF-268 > 100 µM | SW-620 > 100 µM | UACC-62 97.5 µM | MDA-MB-231 > 100 µM

O=C1NCC(NC(=O)C(F)(F)F)c2c(Br)sc(Br)c21 (configuration not stated)
inactive: IGROV-1 > 100 µM | UACC-257 > 100 µM | TK-10 > 100 µM | BT-549 > 100 µM | M14 > 100 µM | U-251 > 100 µM | HCT-116 > 100 µM | MCF7 > 100 µM | MDA-N > 100 µM | OVCAR-3 > 100 µM | T47D > 100 µM | SK-MEL-28 > 100 µM | UO-31 > 100 µM | A549 > 100 µM | SF-268 > 100 µM | SW-620 > 100 µM | UACC-62 > 100 µM | MDA-MB-231 > 100 µM | CAKI-1 > 100 µM

CCOC(=O)c1c(N=P(c2ccccc2)(c2ccccc2)c2ccccc2)nnc(-c2ccccc2)c1-c1ccccc1
inactive: IGROV-1 > 100 µM | UACC-257 > 100 µM | TK-10 > 100 µM | M14 > 100 µM | U-251 > 100 µM | HCT-116 > 100 µM | MCF7 > 100 µM | MDA-N 92.5 µM | OVCAR-3 > 100 µM | T47D > 100 µM | SK-MEL-28 > 100 µM | UO-31 1.66 µM | A549 > 100 µM | SF-268 > 100 µM | SW-620 > 100 µM | UACC-62 > 100 µM | MDA-MB-231 > 100 µM

O=c1c(-c2ccccc2)c(SCCO)n(-c2ccccc2)c(=S)n1-c1ccccc1
inactive: IGROV-1 > 100 µM | UACC-257 > 100 µM | TK-10 > 100 µM | BT-549 > 100 µM | M14 > 100 µM | U-251 > 100 µM | HCT-116 > 100 µM | MCF7 > 100 µM | MDA-N > 100 µM | Hs-578T 99.5 µM | OVCAR-3 > 100 µM | SK-MEL-28 > 100 µM | UO-31 > 100 µM | A549 > 100 µM | SF-268 > 100 µM | SW-620 > 100 µM | UACC-62 39.7 µM | CAKI-1 > 100 µM

CN(C)CCCN1c2ccc([N+](=O)[O-])cc2CCc2cccc([N+](=O)[O-])c21
inactive: IGROV-1 14.9 µM | UACC-257 14.3 µM | TK-10 11.1 µM | M14 13.7 µM | U-251 15.3 µM | HCT-116 14.3 µM | MDA-N 14.8 µM | Hs-578T 14.4 µM | OVCAR-3 15.4 µM | T47D 17.4 µM | SK-MEL-28 14.8 µM | A549 16 µM | SF-268 15.5 µM | SW-620 16.1 µM | UACC-62 3.37 µM | MDA-MB-231 13.1 µM

COC(=O)c1sc2ncc3c(c2c1N)CC(C)CC3 (configuration not stated)
inactive: IGROV-1 > 100 µM | UACC-257 > 100 µM | TK-10 > 100 µM | BT-549 > 100 µM | M14 > 100 µM | U-251 > 100 µM | HCT-116 > 100 µM | MCF7 > 100 µM | MDA-N > 100 µM | OVCAR-3 > 100 µM | T47D > 100 µM | SK-MEL-28 > 100 µM | UO-31 > 100 µM | A549 > 100 µM | SF-268 > 100 µM | SW-620 > 100 µM | UACC-62 > 100 µM | MDA-MB-231 > 100 µM | CAKI-1 > 100 µM

Oc1ccc(Cl)cc1/N=N\c1c(O)ccc2ccccc12
inactive: IGROV-1 > 100 µM | UACC-257 > 100 µM | TK-10 > 100 µM | BT-549 > 100 µM | M14 > 100 µM | U-251 > 100 µM | HCT-116 > 100 µM | MDA-N > 100 µM | Hs-578T > 100 µM | OVCAR-3 > 100 µM | SK-MEL-28 > 100 µM | UO-31 > 100 µM | A549 > 100 µM | SF-268 > 100 µM | SW-620 > 100 µM | UACC-62 > 100 µM | MDA-MB-231 > 100 µM | CAKI-1 > 100 µM

COc1ccc(NC(C)=O)cc1N1C(=O)/C(=C\c2cccc(Oc3ccccc3)c2)S(=O)(=O)C1c1ccccc1 (configuration not stated)
inactive: IGROV-1 34.5 µM | UACC-257 49.3 µM | TK-10 > 100 µM | BT-549 53.3 µM | M14 30.1 µM | U-251 32.7 µM | HCT-116 17.4 µM | MCF7 25.9 µM | MDA-N 21 µM | OVCAR-3 28.5 µM | T47D 18.5 µM | SK-MEL-28 43.1 µM | UO-31 18.9 µM | A549 62.8 µM | SW-620 28.4 µM | UACC-62 58.7 µM | MDA-MB-231 49 µM | CAKI-1 16.6 µM

Nc1c(C(=O)c2ccc(Cl)cc2)[nH]c(NCc2ccccc2)c1C(=S)Nc1ccccc1
inactive: IGROV-1 2.37 µM | UACC-257 1.67 µM | TK-10 2.09 µM | BT-549 2.49 µM | M14 1.96 µM | U-251 1.72 µM | HCT-116 1.83 µM | MCF7 1.58 µM | MDA-N 1.73 µM | OVCAR-3 6.65 µM | T47D 3.76 µM | SK-MEL-28 1.77 µM | UO-31 1.58 µM | A549 2.18 µM | SF-268 3.03 µM | SW-620 1.88 µM | UACC-62 8.15 µM | MDA-MB-231 1.9 µM | CAKI-1 5.2 µM

c1cc2nnc1SCCSCCSc1ccc(nn1)SCCSCCS2
inactive: IGROV-1 > 100 µM | UACC-257 > 100 µM | TK-10 > 100 µM | M14 > 100 µM | U-251 > 100 µM | HCT-116 > 100 µM | MCF7 > 100 µM | MDA-N > 100 µM | Hs-578T > 100 µM | OVCAR-3 > 100 µM | T47D > 100 µM | SK-MEL-28 > 100 µM | UO-31 > 100 µM | A549 > 100 µM | SF-268 > 100 µM | SW-620 > 100 µM | UACC-62 > 100 µM | MDA-MB-231 40.6 µM | CAKI-1 > 100 µM

COC(=O)C1(C(=O)OC)N=C(C)OC1/C=C/c1ccccc1 (configuration not stated)
inactive: IGROV-1 > 100 µM | UACC-257 > 100 µM | TK-10 > 100 µM | BT-549 > 100 µM | M14 > 100 µM | U-251 > 100 µM | HCT-116 > 100 µM | MCF7 > 100 µM | MDA-N > 100 µM | OVCAR-3 > 100 µM | T47D > 100 µM | SK-MEL-28 > 100 µM | UO-31 > 100 µM | A549 > 100 µM | SW-620 > 100 µM | UACC-62 > 100 µM | CAKI-1 > 100 µM

O=C(O)CCCCC1CCSS1 (stereo not drawn) [LIPOIC ACID, ALPHA]
inactive: IGROV-1 > 100 µM | UACC-257 > 100 µM | TK-10 > 100 µM | M14 77.1 µM | U-251 > 100 µM | HCT-116 > 100 µM | MCF7 > 100 µM | MDA-N > 100 µM | Hs-578T > 100 µM | OVCAR-3 > 100 µM | T47D > 100 µM | SK-MEL-28 > 100 µM | UO-31 > 100 µM | A549 > 100 µM | SF-268 > 100 µM | SW-620 > 100 µM | MDA-MB-231 > 100 µM | CAKI-1 > 100 µM
